We go through 54 compounds from patent publication US20260231945A1, “NEMATICIDAL COMPOUNDS, THEIR COMPOSITION AND USE THEREOF” (priority 2023, published 2026).

The series deals with Root-knot nematodes Meloidogyne spp. juveniles (J2). Put plainly: whole plant or invertebrate. The series is classed as in vivo. The conditions noted are these: 70-100 J2 juveniles, 22±2° C., 70±5% RH, dead/inactive counted at 24, 48, 72 and 96 hours (time of rating not stated); for % Mortality Rating: 500 ppm; for mortality at 500 ppm: Meloidogyne. Here is the method: The compound to be tested (4 mg) was dissolved in 40 μl of DMSO to make 100,000 PPM concentration stock solution. […] The nematode suspension (250 μl) having 70-100 juveniles (J2) of Root-knot nematodes Meloidogyne spp. pipetted out to each cell of 24 well bioassay plate. Sterile water (1 ml) was pipetted out in fresh 2.5 ml Eppendorf micro-centrifuge tubes. The desired concentration (500 ppm) of the compound was prepared by adding stock solution in 2.5 ml Eppendorf micro-centrifuge tubes. For each treatment 4 replications were maintained. The bioassay plates were incubated at 22±2° C. and 70±5% RH in humidity chambers.

In general, mortality refers to the share of the test organisms that died. High values mean fewer survivors, low ones more survivors.

Consider `N=C(N)NCCCC(N=CC=Cc1ccc2c[nH]cc2c1)C(=O)O` (stereo not drawn) [Example 59], for which the “% Mortality Rating” value is recorded as “A (70-100)”. In turn, `N=C(N)NCCC[C@H](/N=C/C=C/c1nccs1)C(=O)O` [Example 23, (E)-N^2-[(2E)-3-(1,3-thiazol-2-yl)prop-2-en-1-ylidene]-L-arginine] showed a mortality at 500 ppm of 50 to 69%. As for `N=C(N)NCCCC(N=CC=Cc1ncco1)C(=O)O` (stereo not drawn) [Example 53], the “% Mortality Rating” value is “C (0 to 49)”. As to `COc1cc(/C=C/C=N/[C@@H](CCCNC(=N)N)C(=O)O)ccc1OC(C)=O` [Example 8, (E)-N^2-{(2E)-3-[4-(acetyloxy)-3-methoxyphenyl]prop-2-en-1-ylidene}-L-arginine], the mortality at 500 ppm fell in the range of 0 to 49%. Regarding `N=C(N)NCCCC(N=CC=Cc1ncc[nH]1)C(=O)O` (stereo not drawn) [Example 52], the “% Mortality Rating” value is “B (50-69)”. `CCC(C=NC(CCCNC(=N)N)C(=O)O)=Cc1cccs1` (stereo not drawn) [Example 47]: the “% Mortality Rating” value is on record as “B (50-69)”. On to `N=C(N)NCCC[C@H](/N=C/C=C/c1ccco1)C(=O)O` [Example 14, (E)-N^2-[(2E)-3-(furan-2-yl)prop-2-en-1-ylidene]-L-arginine], for which the mortality at 500 ppm lay in the range of 70 to 100%.

The compound `CCC(/C=N/[C@@H](CCCNC(=N)N)C(=O)O)=C\c1ccccc1` [Example 11, (E)-N^2-[(2E)-2-benzylidenebutylidene]-L-arginine] had a mortality at 500 ppm of 70 to 100%.

For `N=C(N)NCCC[C@H](/N=C/C=C/c1ccsc1)C(=O)O` [Example 21, (E)-N^2-[(2E)-3-(thiophen-3-yl)prop-2-en-1-ylidene]-L-arginine], the mortality at 500 ppm is 70 to 100%. The compound `N=C(N)NCCC[C@H](/N=C/C=C/c1ccc(F)cc1O)C(=O)O` [Example 2, (E)-N^2-[(2E)-3-(4-fluoro-2-hydroxyphenyl)prop-2-en-1-ylidene]-L-arginine] showed a mortality at 500 ppm of 50 to 69%. With `CCC(C=NC(CCCNC(=N)N)C(=O)O)=Cc1cscn1` (stereo not drawn) [Example 48], the “% Mortality Rating” value is “B (50-69)”. In the case of `N=C(N)NCCCC(N=CC=Cc1ccc(C(F)(F)F)cc1)C(=O)O` (stereo not drawn) [Example 28], the “% Mortality Rating” value was “B (50-69)”. With `N=C(N)NCCCC(N=CC=Cc1ccc2c[nH]cc2c1Cl)C(=O)O` (stereo not drawn) [Example 60], the “% Mortality Rating” value was “B (50-69)”. For the compound `N=C(N)NCCC[C@H](/N=C/C=C/c1ccccc1O)C(=O)O` [Example 1, (E)-N^2-[(2E)-3-(2-hydroxyphenyl)prop-2-en-1-ylidene]-L-arginine], the mortality at 500 ppm fell in the range of 70 to 100%.

As for `N=C(N)NCCCC(N=CC=Cc1ccncn1)C(=O)O` (stereo not drawn) [Example 43], the “% Mortality Rating” value is “A (70-100)”. Regarding `CCC(C=NC(CCCNC(=N)N)C(=O)O)=Cc1ccccc1OC(F)(F)F` (stereo not drawn) [Example 31], the “% Mortality Rating” value is reported as “C (0 to 49)”. In the case of `N=C(N)NCCCC(N=CC=Cc1ccn[nH]1)C(=O)O` (stereo not drawn) [Example 50], the “% Mortality Rating” value is “B (50-69)”. Still for that read-out and setting: then `N=C(N)NCCCC(N=CC=Cc1cnc[nH]1)C(=O)O` (stereo not drawn) [Example 51], with “B (50-69)”. As to `CC(C=NC(CCCNC(=N)N)C(=O)O)=Cc1cccs1` (stereo not drawn) [Example 46], the “% Mortality Rating” value is reported as “B (50-69)”. Turning to `C=CCc1ccc(C=CC=NC(CCCNC(=N)N)C(=O)O)c(OC)c1` (stereo not drawn) [Example 38], the “% Mortality Rating” value is given as “B (50-69)”.

Consider `N=C(N)NCCCC(N=CC=Cc1cccnn1)C(=O)O` (stereo not drawn) [Example 45], for which the “% Mortality Rating” value is “C (0 to 49)”. With `C=CCc1cccc(C=CC=NC(CCCNC(=N)N)C(=O)O)c1O` (stereo not drawn) [Example 36], the “% Mortality Rating” value is “A (70-100)”. As for `N=C(N)NCCCC(N=CC=Cc1nc2ccccc2[nH]1)C(=O)O` (stereo not drawn) [Example 55], the “% Mortality Rating” value is “C (0 to 49)”. As to `N=C(N)NCCCC(N=CC=Cc1ccccc1C(F)(F)F)C(=O)O` (stereo not drawn) [Example 30], the “% Mortality Rating” value is “B (50-69)”. As for `COc1ccc(O)c(/C=C/C=N/[C@@H](CCCNC(=N)N)C(=O)O)c1` [Example 5, (E)-N^2-[(2E)-3-(2-hydroxy-5-methoxyphenyl)prop-2-en-1-ylidene]-L-arginine], the mortality at 500 ppm lay within 50 to 69%.

As for `N=C(N)NCCCC(N=CC=Cc1ccc[nH]1)C(=O)O` (stereo not drawn) [Example 54], the “% Mortality Rating” value is given as “B (50-69)”. For `C=CCc1ccc(C=CC=NC(CCCNC(=N)N)C(=O)O)c(O)c1` (stereo not drawn) [Example 35], the “% Mortality Rating” value is listed as “B (50-69)”. Compound `CCCCCC(/C=N/[C@@H](CCCNC(=N)N)C(=O)O)=C\c1ccccc1` [Example 12, (E)-N^2-[(2E)-2-benzylideneheptylidene]-L-arginine] showed a mortality at 500 ppm of 0 to 49%.

With `N=C(N)NCCCC(N=CC=Cc1ccc2cc[nH]c2c1)C(=O)O` (stereo not drawn) [Example 58], the “% Mortality Rating” value was “A (70-100)”.

As to `N=C(N)NCCCC(N=CC=Cc1ccc2scnc2c1)C(=O)O` (stereo not drawn) [Example 57], the “% Mortality Rating” value was “A (70-100)”.

For the compound `CCCCCCC(/C=N/[C@@H](CCCNC(=N)N)C(=O)O)=C\c1ccccc1` [Example 13, (E)-N^2-[(2E)-2-benzylideneoctylidene]-L-arginine], the mortality at 500 ppm lay in the range of 0 to 49%.

Turning to `CC(/C=N/[C@@H](CCCNC(=N)N)C(=O)O)=C\c1ccccc1` [Example 10, (E)-N^2-[(2E)-2-methyl-3-phenylprop-2-en-1-ylidene]-L-arginine], the mortality at 500 ppm was 70 to 100%. `N=C(N)NCCCC(N=CC=Cc1coc2ccccc12)C(=O)O` (stereo not drawn) [Example 64]: the “% Mortality Rating” value is “B (50-69)”. On to `COc1cc(/C=C/C=N/[C@@H](CCCNC(=N)N)C(=O)O)ccc1O` [Example 17, (E)-N^2-[(2E)-3-(4-hydroxy-3-methoxyphenyl)prop-2-en-1-ylidene]-L-arginine], for which the mortality at 500 ppm was in the range of 70 to 100%. In the case of `N=C(N)NCCCC(N=CC=Cc1ccc2ccoc2c1)C(=O)O` (stereo not drawn) [Example 62], the “% Mortality Rating” value was “B (50-69)”. Compound `CC(=O)Oc1ccc(/C=C/C=N/[C@@H](CCCNC(=N)N)C(=O)O)cc1` [Example 18, (E)-N^2-{(2E)-3-[4-(acetyloxy)phenyl]prop-2-en-1-ylidene}-L-arginine] had a mortality at 500 ppm of 70 to 100%. With `N=C(N)NCCC[C@H](/N=C/C=C/c1ccc(Cl)cc1O)C(=O)O` [Example 4, (E)-N^2-[(2E)-3-(4-chloro-2-hydroxyphenyl)prop-2-en-1-ylidene]-L-arginine], the mortality at 500 ppm is 50 to 69%. On the same count and under the same terms, then `Cc1ccc(/C=C/C=N/[C@@H](CCCNC(=N)N)C(=O)O)cc1` [Example 25, (E)-N^2-[(2E)-3-(4-methylphenyl)prop-2-en-1-ylidene]-L-arginine], with 70 to 100%. With `COc1c(C=CC=NC(CCCNC(=N)N)C(=O)O)ccc2[nH]cnc12` (stereo not drawn) [Example 61], the “% Mortality Rating” value is reported as “C (0 to 49)”. On to `N=C(N)NCCCC(N=CC=Cc1cnccn1)C(=O)O` (stereo not drawn) [Example 44], for which the “% Mortality Rating” value is reported as “B (50-69)”. With `N=C(N)NCCCC(N=CC=Cc1nc2ccccc2o1)C(=O)O` (stereo not drawn) [Example 65], the “% Mortality Rating” value is listed as “B (50-69)”. `N=C(N)NCCCC(N=CC=Cc1cc2ccccc2o1)C(=O)O` (stereo not drawn) [Example 63]: the “% Mortality Rating” value is “A (70-100)”. For `CC(/C=N/[C@@H](CCCNC(=N)N)C(=O)O)=C\c1ccco1` [Example 15, (E)-N^2-[(2E)-3-(furan-2-yl)-2-methylprop-2-en-1-ylidene]-L-arginine], the mortality at 500 ppm lay within 50 to 69%. `N=C(N)NCCC[C@H](/N=C/C=C/c1nc2ccccc2s1)C(=O)O` [Example 22, (E)-N^2-[(2E)-3-(1,3-benzothiazol-2-yl)prop-2-en-1-ylidene]-L-arginine] came in with a mortality at 500 ppm of 70 to 100%. In the case of `CC(C=NC(CCCNC(=N)N)C(=O)O)=Cc1ccc(C(F)(F)F)cc1` (stereo not drawn) [Example 29], the “% Mortality Rating” value is “B (50-69)”.

`N=C(N)NCCCC(N=CC=Cc1ccncc1)C(=O)O` (stereo not drawn) [Example 42]: the “% Mortality Rating” value is on record as “A (70-100)”. Turning to `N=C(N)NCCCC(N=CC=Cc1ccccn1)C(=O)O` (stereo not drawn) [Example 40], the “% Mortality Rating” value is on record as “A (70-100)”. As for `COc1ccccc1/C=C/C=N/[C@@H](CCCNC(=N)N)C(=O)O` [Example 6, (E)-N^2-[(2E)-3-(2-methoxyphenyl)prop-2-en-1-ylidene]-L-arginine], the mortality at 500 ppm lay within 70 to 100%. `N=C(N)NCCC[C@H](/N=C/C=C/c1ccccc1OC(=O)c1ccccc1)C(=O)O` [Example 19, (E)-N^2-{(2E)-3-[2-(benzoyloxy)phenyl]prop-2-en-1-ylidene}-L-arginine]: the mortality at 500 ppm lay within 0 to 49%. As for `C=CCc1cccc(C=CC=NC(CCCNC(=N)N)C(=O)O)c1OC` (stereo not drawn) [Example 37], the “% Mortality Rating” value is given as “B (50-69)”. As to `CCOc1ccc(C=CC=NC(CCCNC(=N)N)C(=O)O)cc1` (stereo not drawn) [Example 33], the “% Mortality Rating” value is reported as “C (0 to 49)”. On to `COc1ccc(/C=C/C=N/[C@@H](CCCNC(=N)N)C(=O)O)cc1` [Example 7, (E)-N^2-[(2E)-3-(4-methoxyphenyl)prop-2-en-1-ylidene]-L-arginine], for which the mortality at 500 ppm is 70 to 100%. Regarding `C=CCc1ccc(C=CC=NC(CCCNC(=N)N)C(=O)O)cc1` (stereo not drawn) [Example 34], the “% Mortality Rating” value is listed as “B (50-69)”. In turn, `CCC(/C=N/[C@@H](CCCNC(=N)N)C(=O)O)=C\c1ccco1` [Example 16, (E)-N^2-{(2E)-2-[(furan-2-yl)methylidene]butylidene}-L-arginine] yielded a mortality at 500 ppm of 0 to 49%.
